This is an account of results in US6506772B1, “Substituted [1,2,4]triazolo[1,5a]pyridine derivatives with activity as adenosine receptor ligands” (Hoffmann-La Roche Inc., priority 2000, dated 2003).

Molecules are shown by their SMILES.

The target of the first experiment is T1, human adenosine A2A receptor (Homo sapiens, UniProt P29274).
T1 construct: expressed in transfected cells; host or cells: CHO cells, Semliki Forest virus expression system; membrane preparation
T1 sequence (P29274 whole entry): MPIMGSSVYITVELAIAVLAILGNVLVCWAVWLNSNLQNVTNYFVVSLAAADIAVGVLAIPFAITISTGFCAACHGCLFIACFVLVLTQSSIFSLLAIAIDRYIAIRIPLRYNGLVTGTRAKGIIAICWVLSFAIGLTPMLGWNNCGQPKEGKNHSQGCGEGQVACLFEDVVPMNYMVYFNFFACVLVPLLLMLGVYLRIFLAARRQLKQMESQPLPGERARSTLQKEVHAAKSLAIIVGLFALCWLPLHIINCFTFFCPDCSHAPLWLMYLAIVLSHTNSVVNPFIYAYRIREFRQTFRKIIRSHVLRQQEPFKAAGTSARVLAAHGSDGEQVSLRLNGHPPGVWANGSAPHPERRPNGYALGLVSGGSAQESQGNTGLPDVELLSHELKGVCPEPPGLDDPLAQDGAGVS
The experiment in a line: Human adenosine A2A receptor [3H]-SCH-58261 binding assay. Conditions: affinity to human adenosine A2A receptor; read-out: Ki HA2A. As to the method: Human Adenosine A2A Receptor
The human adenosine A2A receptor was recombinantly expressed in chinese hamster ovary (CHO) cells using the semliki forest virus expression system. Cells were harvested, washed twice by centrifugation, homogenized and again washed by centrifugation. The final washed membrane pellet was suspended in a Tris (50 mM) buffer containing 120 mM NaCl, 5 mM KCl, 2 mM CaCl2 and 10 MM MgCl2 (pH 7.4) (buffer A). […] Compounds were tested at 10 concentrations from 10 μM-0.3 nM. All assays were conducted in duplicate and repeated at least two times. Assay plates were incubated for 1 hour at room temperature before centrifugation and then bound ligand determined using a Packard Topcount scintillation counter. IC50 values were calculated using a non-linear curve fitting program and Ki values calculated using the Cheng-Prussoff equation.
In the case of `Cc1ccsc1-c1nc2cc(C(=O)NC3CCCCC3)cc(N)n2n1` [Example 37, 5-Amino-2-(3-methyl-thiophen-2-yl)-[1,2,4]triazolo[1,5-a]pyridine-7-carboxylic acid cyclohexylamide], the Ki – broadly, the dissociation constant of the complex between target and ligand, obtained from inhibition or displacement – came to 375 nM.

For `COc1ccc(CNC(=O)c2cc(N)n3nc(-c4ccccn4)nc3c2)cc1` [Example 42, 5-Amino-2-pyridin-2-yl-[1,2,4]triazolo[1,5-a]pyridine-7-carboxylic acid 4-methoxy-benzylamide], the inhibition constant Ki was found to be 341 nM.

As for `COc1ccc(-c2nc3cc(C(=O)N(CCN(C)C)Cc4ccccc4)cc(N)n3n2)s1` [Example 53, 5-Amino-2-(5-methoxy-thiophen-2-yl)-[1,2,4]triazolo[1,5-a]pyridine-7-carboxylic acid benzyl-(2-dimethylamino-ethyl)-amide], the Ki is 327 nM.

On to `COc1ccc(-c2nc3cc(C(=O)NCCc4ccccc4OC)cc(N)n3n2)s1` [Example 54, 5-Amino-2-(5-methoxy-thiophen-2-yl)-[1,2,4]triazolo[1,5-a]pyridine-7-carboxylic acid [2-(2-methoxy-phenyl)-ethyl]-amide], for which the inhibition constant Ki was 315 nM.

Turning to `COc1ccc(-c2nc3cc(C(=O)NCCc4ccccc4F)cc(N)n3n2)s1` [Example 57, 5-Amino-2-(5-methoxy-thiophen-2-yl)-[1,2,4]triazolo[1,5-a]pyridine-7-carboxylic acid [2-(2-fluoro-phenyl)-ethyl]-amide], the Ki amounted to 337 nM.

As for `COc1ccc(-c2nc3cc(C(=O)NC(C)c4ccccc4)cc(N)n3n2)s1` (stereo not drawn) [Example 60, 5-Amino-2-(5-methoxy-thiophen-2-yl)-[1,2,4]triazolo[1,5-a]pyridine-7-carboxylic acid (1-phenyl-ethyl)-amide], the inhibitory constant (Ki) was determined as 392 nM.

In the case of `COc1ccc(-c2nc3cc(C(=O)NCc4cccnc4)cc(N)n3n2)s1` [Example 61, 5-Amino-2-(5-methoxy-thiophen-2-yl)-[1,2,4]triazolo[1,5-a]pyridine-7-carboxylic acid (pyridin-3-ylmethyl)-amide], the Ki stood at 333 nM.

Take `COc1ccc(-c2nc3cc(C(=O)N4CCCC4)cc(N)n3n2)s1` [Example 69, [5-Amino-2-(5-methoxy-thiophen-2-yl)-[1,2,4]triazolo[1,5-a]pyridin-7-yl]-pyrrolidin-1-yl-methanone]: the Ki amounted to 339 nM.

Consider `COc1ccc(-c2nc3cc(C(=O)NC4CC4)cc(N)n3n2)s1` [Example 72, 5-Amino-2-(5-methoxy-thiophen-2-yl)-[1,2,4]triazolo[1,5-a]pyridine-7-carboxylic acid cyclopropylamide], for which the inhibitory constant (Ki) was determined as 260 nM.

Take `COc1ccc(-c2nc3cc(C(=O)NC4CCCCCC4)cc(N)n3n2)s1` [Example 74, 5-Amino-2-(5-methoxy-thiophen-2-yl)-[1,2,4]triazolo[1,5-a]pyridine-7-carboxylic acid cycloheptylamide]: the inhibitory constant (Ki) came out at 367 nM.

Take `CCN(Cc1ccccc1F)C(=O)c1cc(N)n2nc(-c3ccc(OC)s3)nc2c1` [Example 76, 5-Amino-2-(5-methoxy-thiophen-2-yl)-[1,2,4]triazolo[1,5-a]pyridine-7-carboxylic acid ethyl-(2-fluoro-benzyl)-amide]: the Ki worked out at 28.5 nM.

For the molecule `Nc1cc(C(=O)NCc2ccccc2Br)cc2nc(-c3ccc[nH]3)nn12` [Example 92, 5-Amino-2-(1H-pyrrol-2-yl)-[1,2,4]triazolo[1,5-a]pyridine-7-carboxylic acid 2-bromo-benzylamide], the inhibition constant (Ki) is 293 nM.

On to `CCN(Cc1ccccc1)C(=O)c1cc(N)n2nc(-c3ccc[nH]3)nc2c1` [Example 94, 5-Amino-2-(1H-pyrrol-2-yl)-[1,2,4]triazolo[1,5-a]pyridine-7-carboxylic acid benzyl-ethyl-amide], for which the Ki was determined as 395 nM.

In the case of `Nc1cc(C(=O)NC2CCC2)cc2nc(-c3ccc[nH]3)nn12` [Example 95, 5-Amino-2-(1H-pyrrol-2-yl)-[1,2,4]triazolo[1,5-a]pyridine-7-carboxylic acid cyclobutylamide], the Ki came out at 392 nM.

Turning to `COc1ccc(CNC(=O)c2cc(N)n3nc(-c4cccs4)nc3c2)cc1` [Example 229, 5-Amino-2-thiophen-2-yl-[1,2,4]triazolo[1,5-a]pyridine-7-carboxylic acid 4-methoxy-benzylamide], the Ki turned out to be 384 nM.

As for `Nc1cc(C(=O)NCc2ccc(Cl)cc2)cc2nc(-c3ccoc3)nn12` [Example 230, 5-Amino-2-furan-3-yl-[1,2,4]triazolo[1,5-a]pyridine-7-carboxylic acid 4-chloro-benzylamide], the Ki came out at 329 nM.

For the molecule `COc1ccc(CNC(=O)c2cc(N)n3nc(-c4ccc(Br)o4)nc3c2)cc1` [Example 231, 5-Amino-2-(5-bromo-furan-2-yl)-[1,2,4]triazolo[1,5-a]pyridine-7-carboxylic acid 4-methoxy-benzylamide], the Ki amounted to 365 nM.

Regarding `Nc1cc(C(=O)N2CCSCC2)cc2nc(-c3nccs3)nn12` [Example 318, (5-Amino-2-thiazol-2-yl-[1,2,4]triazolo[1,5-a]pyridin-7-yl)-thiomorpholin-4-yl-methanone], the Ki was 332 nM.

`COCCN(CCOC)C(=O)c1cc(N)n2nc(-c3nccs3)nc2c1` [Example 321, 5-Amino-2-thiazol-2-yl-[1,2,4]triazolo[1,5-a]pyridine-7-carboxylic acid bis-(2-methoxy-ethyl)-amide]: the Ki was found to be 319 nM.

Take `CN(CCc1ccccn1)C(=O)c1cc(N)n2nc(-c3nccs3)nc2c1` [Example 324, 5-Amino-2-thiazol-2-yl-[1,2,4]triazolo[1,5-a]pyridine-7-carboxylic acid methyl-(2-pyridin-2-yl-ethyl)-amide]: the inhibition constant (Ki) was 295 nM.

As to `Nc1cc(C(=O)N2CC=C(c3ccccc3)CC2)cc2nc(-c3nccs3)nn12` [Example 326, (5-Amino-2-thiazol-2-yl-[1,2,4]triazolo[1,5-a]pyridin-7-yl)-(4-phenyl-3,6-dihydro-2H-pyridin-1-yl)-methanone], the Ki is 373 nM.

The same experiment, now with this note: ratio KiHA1 divided by KiHA2A.
Take `CN(C)C(=O)CN(C)C(=O)c1cc(N)n2nc(-c3nccs3)nc2c1` [Example 399, 5-Amino-2-thiazol-2-yl-[1,2,4]triazolo[1,5-a]pyridine-7-carboxylic acid dimethylcarbamoylmethyl-methyl-amide]: the “selectivity (A1/A2a)” value amounted to 61.4.

In the case of `CN(C)C(=O)[C@@H]1CCCN1C(=O)c1cc(N)n2nc(-c3nccs3)nc2c1` [Example 402, 1-(5-Amino-2-thiazol-2-yl-[1,2,4]triazolo[1,5-a]pyridine-7-carbonyl)-pyrrolidine-2-carboxylic acid dimethylamide], the “selectivity (A1/A2a)” value is 21.2.

For `CC(=O)N(C)C1CCN(C(=O)c2cc(N)n3nc(-c4nccs4)nc3c2)C1` (stereo not drawn) [Example 403, N-[1-(5-Amino-2-thiazol-2-yl-[1,2,4]triazolo[1,5-a]pyridine-7-carbonyl)-pyrrolidin-3-yl]-N-methyl-acetamide], the “selectivity (A1/A2a)” value is given as 15.6.

Consider `CN(C)C(=O)CN(C)C(=O)c1cc(N)n2nc(-c3ccccn3)nc2c1` [Example 428, 5-Amino-2-pyridin-2-yl-[1,2,4]triazolo[1,5-a]pyridine-7-carboxylic acid dimethylcarbamoylmethyl-methyl-amide], for which the “selectivity (A1/A2a)” value came out at 53.1.

As for `CCN(CC)C(=O)C1CCCN(C(=O)c2cc(N)n3nc(-c4ccccn4)nc3c2)C1` (stereo not drawn) [Example 434, 1-(5-Amino-2-pyridin-2-yl-[1,2,4]triazolo[1,5-a]pyridine-7-carbonyl)-piperidine-3-carboxylic acid diethylamide], the “selectivity (A1/A2a)” value turned out to be 52.6.

The experiment is the same for the next values; noted with them: recombinant human A2A in CHO cell membranes, [3H]-SCH-58261, Cheng-Prussoff; read-out: Ki hA2A.
Take `CN(C)C(=O)CN(C)C(=O)c1cc(N)n2nc(-c3nccs3)nc2c1` [Example 399, 5-Amino-2-thiazol-2-yl-[1,2,4]triazolo[1,5-a]pyridine-7-carboxylic acid dimethylcarbamoylmethyl-methyl-amide]: the Ki was 101 nM.

In the case of `CN(C)C(=O)[C@@H]1CCCN1C(=O)c1cc(N)n2nc(-c3nccs3)nc2c1` [Example 402, 1-(5-Amino-2-thiazol-2-yl-[1,2,4]triazolo[1,5-a]pyridine-7-carbonyl)-pyrrolidine-2-carboxylic acid dimethylamide], the Ki turned out to be 293 nM.

For `CC(=O)N(C)C1CCN(C(=O)c2cc(N)n3nc(-c4nccs4)nc3c2)C1` (stereo not drawn) [Example 403, N-[1-(5-Amino-2-thiazol-2-yl-[1,2,4]triazolo[1,5-a]pyridine-7-carbonyl)-pyrrolidin-3-yl]-N-methyl-acetamide], the Ki stood at 398 nM.

Consider `CN(C)C(=O)CN(C)C(=O)c1cc(N)n2nc(-c3ccccn3)nc2c1` [Example 428, 5-Amino-2-pyridin-2-yl-[1,2,4]triazolo[1,5-a]pyridine-7-carboxylic acid dimethylcarbamoylmethyl-methyl-amide], for which the Ki was 117 nM.

Consider `CCN(CC)C(=O)C1CCCN(C(=O)c2cc(N)n3nc(-c4ccccn4)nc3c2)C1` (stereo not drawn) [Example 434, 1-(5-Amino-2-pyridin-2-yl-[1,2,4]triazolo[1,5-a]pyridine-7-carbonyl)-piperidine-3-carboxylic acid diethylamide], for which the Ki was 118 nM.

The target of a further experiment is T2, HA1 adenosine receptor (Homo sapiens, UniProt P30542).
T2 sequence (P30542 1-326): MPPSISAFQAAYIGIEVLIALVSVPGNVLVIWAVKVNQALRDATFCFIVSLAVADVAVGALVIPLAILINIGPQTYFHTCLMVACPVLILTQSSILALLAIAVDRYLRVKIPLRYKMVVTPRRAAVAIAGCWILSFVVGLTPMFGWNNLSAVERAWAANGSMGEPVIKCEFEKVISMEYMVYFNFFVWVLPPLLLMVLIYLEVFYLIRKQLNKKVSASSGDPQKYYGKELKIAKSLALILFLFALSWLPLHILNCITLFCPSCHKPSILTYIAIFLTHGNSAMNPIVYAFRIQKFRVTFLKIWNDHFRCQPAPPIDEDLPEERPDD
The experiment in a line: Human adenosine A1 receptor affinity (Ki hA1). Type of experiment: binding. The note with it: affinity to human adenosine A1 receptor.
`CCN(CC)C(=O)c1cc(N)n2nc(-c3ccc(Br)o3)nc2c1` [Example 21, 5-Amino-2-(5-bromo-furan-2-yl)-[1,2,4]triazolo[1,5-a]pyridine-7-carboxylic acid diethylamide] had an inhibition constant Ki of 232 nM.

`Nc1cc(C(=O)N2CCCC2)cc2nc(-c3ccc(Br)o3)nn12` [Example 22, [5-Amino-2-(5-bromo-furan-2-yl)-[1,2,4]triazolo[1,5-a]pyridin-7-yl]-pyrrolidin-1-yl-methanone] gave an inhibition constant Ki of 548 nM.

On to `Nc1cc(C(=O)N2CCCCC2)cc2nc(-c3ccc(Br)o3)nn12` [Example 23, [5-Amino-2-(5-bromo-furan-2-yl)-[1,2,4]triazolo[1,5-a]pyridin-7-yl]-piperidin-1-yl-methanone], for which the affinity corresponds to a Ki of 276 nM.

As to `Cc1ccc(-c2nc3cc(C(=O)N4CCCC4)cc(N)n3n2)o1` [Example 27, [5-Amino-2-(5-methyl-furan-2-yl)-[1,2,4]triazolo[1,5-a]pyridin-7-yl]-pyrrolidin-1-yl-methanone], the Ki turned out to be 940 nM.

Molecule `Cc1ccc(-c2nc3cc(C(=O)N4CCCCC4)cc(N)n3n2)o1` [Example 28, [5-Amino-2-(5-methyl-furan-2-yl)-[1,2,4]triazolo[1,5-a]pyridin-7-yl]-piperidin-1-yl-methanone] displayed an inhibition constant (Ki) of 696 nM.
